From ChEMBL document CHEMBL1938312, “Design and combinatorial synthesis of a novel kinase-focused library using click chemistry-based fragment assembly” (Bioorg Med Chem Lett, 2012) come the findings set out here.

In test [1] the target is T1, 5'-AMP-activated protein kinase subunit beta-1 (Homo sapiens) (UniProt Q9Y478).
T1 sequence (whole entry): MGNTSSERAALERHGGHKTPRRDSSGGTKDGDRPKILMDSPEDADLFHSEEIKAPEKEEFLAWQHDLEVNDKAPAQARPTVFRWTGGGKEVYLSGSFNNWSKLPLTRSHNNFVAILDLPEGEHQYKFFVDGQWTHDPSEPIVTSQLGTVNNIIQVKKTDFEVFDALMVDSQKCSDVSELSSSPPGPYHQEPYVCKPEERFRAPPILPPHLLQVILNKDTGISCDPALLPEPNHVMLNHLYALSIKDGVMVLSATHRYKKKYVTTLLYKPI
Put plainly: Inhibition of AMPKbeta1 at 10 uM by colorimetric analysis.

In test [2] the target is T2, Aurora kinase A (Homo sapiens) (UniProt O14965).
T2 sequence (whole entry): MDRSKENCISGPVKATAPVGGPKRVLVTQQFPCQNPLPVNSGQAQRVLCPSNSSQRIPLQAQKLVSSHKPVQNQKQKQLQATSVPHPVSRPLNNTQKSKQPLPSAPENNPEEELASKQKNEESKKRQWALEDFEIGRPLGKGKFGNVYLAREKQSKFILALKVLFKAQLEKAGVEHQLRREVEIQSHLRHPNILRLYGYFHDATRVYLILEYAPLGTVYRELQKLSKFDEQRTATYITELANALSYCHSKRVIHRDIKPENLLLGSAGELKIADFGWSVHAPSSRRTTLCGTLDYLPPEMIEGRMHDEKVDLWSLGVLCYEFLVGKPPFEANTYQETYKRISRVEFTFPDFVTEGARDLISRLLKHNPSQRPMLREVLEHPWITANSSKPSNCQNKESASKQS
Put plainly: Inhibition of Aurora A at 10 uM by colorimetric analysis.

The target in test [3] is 3-phosphoinositide-dependent protein kinase 1 (Homo sapiens) (UniProt O15530). Put plainly: Inhibition of PDK1 at 10 uM by colorimetric analysis.
Chain of 3-phosphoinositide-dependent protein kinase 1 (Homo sapiens) (O15530 whole entry, looked up): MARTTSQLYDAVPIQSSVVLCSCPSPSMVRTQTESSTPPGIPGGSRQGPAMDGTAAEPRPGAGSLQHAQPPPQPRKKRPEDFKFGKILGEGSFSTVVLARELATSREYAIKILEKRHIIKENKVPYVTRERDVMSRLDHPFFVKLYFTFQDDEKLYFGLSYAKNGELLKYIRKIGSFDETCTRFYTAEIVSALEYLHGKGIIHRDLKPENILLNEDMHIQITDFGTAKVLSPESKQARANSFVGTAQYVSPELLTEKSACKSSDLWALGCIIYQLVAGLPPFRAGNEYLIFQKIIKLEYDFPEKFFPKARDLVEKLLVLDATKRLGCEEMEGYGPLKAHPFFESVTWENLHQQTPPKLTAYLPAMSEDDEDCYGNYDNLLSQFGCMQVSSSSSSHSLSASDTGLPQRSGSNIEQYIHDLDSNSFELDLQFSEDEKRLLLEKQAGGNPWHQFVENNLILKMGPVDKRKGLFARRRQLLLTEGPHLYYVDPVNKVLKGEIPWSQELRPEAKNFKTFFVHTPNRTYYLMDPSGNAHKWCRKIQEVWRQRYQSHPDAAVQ
Test [4] has as its target Serine/threonine-protein kinase PAK 4 (Homo sapiens) (UniProt O96013). Put plainly: Inhibition of PAK4 at 10 uM by colorimetric analysis.
Test [5] has as its target Mitogen-activated protein kinase 1 (Homo sapiens) (UniProt P28482). Put plainly: Inhibition of Erk2 at 10 uM by colorimetric analysis.
For test [6], the target named is Mitogen-activated protein kinase 14 (Homo sapiens) (UniProt Q16539). Put plainly: Inhibition of p38alpha at 10 uM by colorimetric analysis.
Chain of Mitogen-activated protein kinase 14 (Homo sapiens) (Q16539 whole entry): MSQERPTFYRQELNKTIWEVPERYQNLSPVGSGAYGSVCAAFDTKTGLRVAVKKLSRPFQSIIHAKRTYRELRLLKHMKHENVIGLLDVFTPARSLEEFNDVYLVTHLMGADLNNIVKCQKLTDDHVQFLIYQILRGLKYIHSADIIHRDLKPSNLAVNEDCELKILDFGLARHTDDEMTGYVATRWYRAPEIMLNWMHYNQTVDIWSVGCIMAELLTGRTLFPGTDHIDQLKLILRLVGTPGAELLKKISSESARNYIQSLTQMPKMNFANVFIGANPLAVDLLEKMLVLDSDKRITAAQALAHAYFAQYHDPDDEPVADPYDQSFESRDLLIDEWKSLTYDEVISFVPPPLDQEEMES
Test [7] concerns the target T3, Serine/threonine-protein kinase Chk1 (Homo sapiens) (UniProt O14757).
T3 sequence (whole entry): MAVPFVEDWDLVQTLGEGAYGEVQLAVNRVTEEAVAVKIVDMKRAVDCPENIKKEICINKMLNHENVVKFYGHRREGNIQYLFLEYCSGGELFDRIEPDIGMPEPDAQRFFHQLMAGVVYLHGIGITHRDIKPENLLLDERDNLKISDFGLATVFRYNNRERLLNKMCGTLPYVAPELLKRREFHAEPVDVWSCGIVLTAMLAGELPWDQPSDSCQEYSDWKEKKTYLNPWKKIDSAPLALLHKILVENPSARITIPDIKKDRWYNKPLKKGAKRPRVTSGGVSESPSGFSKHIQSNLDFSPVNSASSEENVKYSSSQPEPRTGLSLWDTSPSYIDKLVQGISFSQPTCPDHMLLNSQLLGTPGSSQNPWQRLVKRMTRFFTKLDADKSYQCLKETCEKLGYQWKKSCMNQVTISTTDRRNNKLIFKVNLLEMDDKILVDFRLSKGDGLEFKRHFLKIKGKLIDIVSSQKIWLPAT
Put plainly: Inhibition of CHK1 at 10 uM by colorimetric analysis.

Test [8] deals with Vascular endothelial growth factor receptor 2 (Homo sapiens) (UniProt P35968). Put plainly: Inhibition of KDR at 10 uM by colorimetric analysis.
The target in test [9] is Angiopoietin-1 receptor (Homo sapiens) (UniProt Q02763). Put plainly: Inhibition of TIE2 at 10 uM by colorimetric analysis.
Chain of Angiopoietin-1 receptor (Homo sapiens) (Q02763 whole entry): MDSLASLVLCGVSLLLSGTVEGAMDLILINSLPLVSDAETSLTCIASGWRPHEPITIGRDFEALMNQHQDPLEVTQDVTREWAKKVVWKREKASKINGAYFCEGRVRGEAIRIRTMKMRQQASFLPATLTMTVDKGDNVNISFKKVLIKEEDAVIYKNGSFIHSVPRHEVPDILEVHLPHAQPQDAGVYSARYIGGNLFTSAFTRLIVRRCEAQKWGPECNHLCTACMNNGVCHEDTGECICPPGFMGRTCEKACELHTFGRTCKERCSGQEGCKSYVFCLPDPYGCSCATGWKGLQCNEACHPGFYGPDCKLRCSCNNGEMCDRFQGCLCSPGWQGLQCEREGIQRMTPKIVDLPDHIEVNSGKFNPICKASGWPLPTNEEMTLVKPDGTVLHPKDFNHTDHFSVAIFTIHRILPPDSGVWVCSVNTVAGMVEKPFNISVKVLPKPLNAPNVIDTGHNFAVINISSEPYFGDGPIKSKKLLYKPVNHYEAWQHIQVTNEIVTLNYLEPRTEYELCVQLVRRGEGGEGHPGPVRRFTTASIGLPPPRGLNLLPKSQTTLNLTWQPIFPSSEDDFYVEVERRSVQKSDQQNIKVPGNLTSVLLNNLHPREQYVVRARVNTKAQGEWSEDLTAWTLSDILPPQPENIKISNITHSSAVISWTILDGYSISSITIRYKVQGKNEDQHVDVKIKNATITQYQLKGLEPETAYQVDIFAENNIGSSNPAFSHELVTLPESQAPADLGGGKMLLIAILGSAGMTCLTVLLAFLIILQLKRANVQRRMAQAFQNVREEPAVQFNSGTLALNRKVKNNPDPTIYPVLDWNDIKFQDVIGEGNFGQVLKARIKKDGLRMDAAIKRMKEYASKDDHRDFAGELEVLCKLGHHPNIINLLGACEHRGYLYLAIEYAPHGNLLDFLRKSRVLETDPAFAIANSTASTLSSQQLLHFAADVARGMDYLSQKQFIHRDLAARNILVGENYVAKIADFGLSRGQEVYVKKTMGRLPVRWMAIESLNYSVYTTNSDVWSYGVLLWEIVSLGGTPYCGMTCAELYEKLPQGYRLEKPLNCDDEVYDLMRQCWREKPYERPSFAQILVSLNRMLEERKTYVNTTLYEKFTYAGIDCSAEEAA
The target of test [10] is T4, Calcium/calmodulin-dependent protein kinase type IV (Homo sapiens) (UniProt Q16566).
T4 sequence (whole entry): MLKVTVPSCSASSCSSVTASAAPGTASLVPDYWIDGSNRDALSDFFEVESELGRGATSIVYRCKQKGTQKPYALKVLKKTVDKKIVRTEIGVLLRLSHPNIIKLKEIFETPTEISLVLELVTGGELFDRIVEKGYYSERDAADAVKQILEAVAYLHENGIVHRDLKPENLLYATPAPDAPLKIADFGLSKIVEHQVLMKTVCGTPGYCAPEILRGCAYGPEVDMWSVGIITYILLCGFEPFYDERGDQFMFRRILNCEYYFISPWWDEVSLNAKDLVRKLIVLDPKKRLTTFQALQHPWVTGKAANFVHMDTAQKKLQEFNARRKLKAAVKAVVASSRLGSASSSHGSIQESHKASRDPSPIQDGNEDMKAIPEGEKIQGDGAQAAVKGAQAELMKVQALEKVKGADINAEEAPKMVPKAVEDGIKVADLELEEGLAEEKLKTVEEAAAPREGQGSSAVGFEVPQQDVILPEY
Put plainly: Inhibition of CaMK4 at 10 uM by colorimetric analysis.

Test [11] deals with Fibroblast growth factor receptor 1 (Homo sapiens) (UniProt P11362). Put plainly: Inhibition of FGFR1 at 10 uM by colorimetric analysis.
Test [12] deals with T5, Serine/threonine-protein kinase Nek2 (Homo sapiens) (UniProt P51955).
T5 sequence (whole entry): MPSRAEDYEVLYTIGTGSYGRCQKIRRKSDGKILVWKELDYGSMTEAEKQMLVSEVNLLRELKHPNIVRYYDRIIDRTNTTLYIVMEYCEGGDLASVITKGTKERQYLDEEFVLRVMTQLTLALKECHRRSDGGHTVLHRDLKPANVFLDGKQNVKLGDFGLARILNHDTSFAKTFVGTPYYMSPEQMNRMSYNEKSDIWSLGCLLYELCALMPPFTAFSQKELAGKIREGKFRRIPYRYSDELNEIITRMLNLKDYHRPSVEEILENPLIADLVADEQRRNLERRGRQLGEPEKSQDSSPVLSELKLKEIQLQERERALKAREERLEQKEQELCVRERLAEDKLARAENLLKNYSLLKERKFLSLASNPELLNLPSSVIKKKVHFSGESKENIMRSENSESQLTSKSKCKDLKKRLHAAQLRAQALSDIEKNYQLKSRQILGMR
Put plainly: Inhibition of NEK2 at 10 uM by colorimetric analysis.

For test [13], the target named is Casein kinase I isoform epsilon (Homo sapiens) (UniProt P49674). Put plainly: Inhibition of CK1epsilon at 10 uM by colorimetric analysis.
Chain of Casein kinase I isoform epsilon (Homo sapiens) (P49674 whole entry, looked up, canonical isoform): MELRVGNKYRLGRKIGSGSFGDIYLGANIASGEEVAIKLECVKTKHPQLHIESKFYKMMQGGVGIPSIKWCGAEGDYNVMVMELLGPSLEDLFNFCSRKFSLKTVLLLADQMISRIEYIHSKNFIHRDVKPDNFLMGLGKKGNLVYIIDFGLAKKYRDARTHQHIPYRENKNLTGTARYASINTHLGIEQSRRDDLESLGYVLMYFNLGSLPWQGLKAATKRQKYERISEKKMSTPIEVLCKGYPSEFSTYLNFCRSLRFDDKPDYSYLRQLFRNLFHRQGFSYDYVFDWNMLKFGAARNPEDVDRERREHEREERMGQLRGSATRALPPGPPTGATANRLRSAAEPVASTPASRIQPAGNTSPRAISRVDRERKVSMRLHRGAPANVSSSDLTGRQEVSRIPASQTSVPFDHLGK
The target of test [14] is Dual specificity tyrosine-phosphorylation-regulated kinase 1B (Homo sapiens) (UniProt Q9Y463). Put plainly: Inhibition of DYRK1B at 10 uM by colorimetric analysis.
Chain of Dual specificity tyrosine-phosphorylation-regulated kinase 1B (Homo sapiens) (Q9Y463 whole entry, looked up): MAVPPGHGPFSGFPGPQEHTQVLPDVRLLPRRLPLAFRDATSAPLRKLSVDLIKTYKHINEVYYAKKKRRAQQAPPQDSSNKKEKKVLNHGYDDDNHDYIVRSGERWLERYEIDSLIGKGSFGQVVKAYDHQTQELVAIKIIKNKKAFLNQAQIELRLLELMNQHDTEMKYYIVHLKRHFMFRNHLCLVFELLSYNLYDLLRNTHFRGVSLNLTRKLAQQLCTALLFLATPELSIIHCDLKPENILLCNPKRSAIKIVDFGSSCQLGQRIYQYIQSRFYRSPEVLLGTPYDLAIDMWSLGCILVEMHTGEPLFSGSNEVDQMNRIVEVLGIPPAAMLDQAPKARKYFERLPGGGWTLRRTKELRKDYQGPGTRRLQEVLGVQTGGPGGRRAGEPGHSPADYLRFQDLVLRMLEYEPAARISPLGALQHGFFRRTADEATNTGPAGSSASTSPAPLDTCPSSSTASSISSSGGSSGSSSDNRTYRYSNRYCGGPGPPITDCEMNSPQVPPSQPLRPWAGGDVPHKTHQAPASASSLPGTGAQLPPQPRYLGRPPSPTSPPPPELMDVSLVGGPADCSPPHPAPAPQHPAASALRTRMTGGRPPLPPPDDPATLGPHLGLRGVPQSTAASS
In test [15] the target is Ephrin type-A receptor 2 (Homo sapiens) (UniProt P29317). Put plainly: Inhibition of EPHA2 at 10 uM by colorimetric analysis.
Chain of Ephrin type-A receptor 2 (Homo sapiens) (P29317 whole entry): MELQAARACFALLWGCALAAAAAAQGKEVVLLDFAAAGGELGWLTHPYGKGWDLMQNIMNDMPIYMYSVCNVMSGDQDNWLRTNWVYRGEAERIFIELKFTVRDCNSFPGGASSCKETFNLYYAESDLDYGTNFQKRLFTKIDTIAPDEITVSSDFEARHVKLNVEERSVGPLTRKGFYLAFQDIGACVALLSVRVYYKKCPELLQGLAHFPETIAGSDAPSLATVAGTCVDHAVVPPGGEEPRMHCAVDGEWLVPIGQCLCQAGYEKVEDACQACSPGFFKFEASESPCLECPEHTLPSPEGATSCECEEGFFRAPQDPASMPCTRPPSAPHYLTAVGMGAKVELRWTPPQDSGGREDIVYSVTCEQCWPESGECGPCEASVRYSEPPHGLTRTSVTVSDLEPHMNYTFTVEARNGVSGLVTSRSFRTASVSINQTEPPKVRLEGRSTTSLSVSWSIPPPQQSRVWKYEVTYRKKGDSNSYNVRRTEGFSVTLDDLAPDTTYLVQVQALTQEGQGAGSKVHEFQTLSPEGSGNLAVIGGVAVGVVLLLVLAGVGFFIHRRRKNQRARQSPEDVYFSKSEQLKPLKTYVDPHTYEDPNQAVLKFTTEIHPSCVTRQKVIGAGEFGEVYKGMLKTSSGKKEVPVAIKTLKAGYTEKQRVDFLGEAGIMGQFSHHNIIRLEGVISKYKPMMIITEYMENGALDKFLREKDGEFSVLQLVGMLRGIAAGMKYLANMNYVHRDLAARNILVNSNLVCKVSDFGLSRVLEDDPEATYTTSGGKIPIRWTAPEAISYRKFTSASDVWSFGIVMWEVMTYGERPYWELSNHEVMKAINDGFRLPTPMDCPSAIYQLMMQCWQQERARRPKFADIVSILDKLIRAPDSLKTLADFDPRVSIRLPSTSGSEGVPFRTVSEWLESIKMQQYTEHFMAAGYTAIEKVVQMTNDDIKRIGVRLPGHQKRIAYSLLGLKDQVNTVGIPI

Structures are written as SMILES. Active and inactive are the calls of the source. The rule behind the calls is not given here.

Chain of Mitogen-activated protein kinase 1 (Homo sapiens) (P28482 whole entry): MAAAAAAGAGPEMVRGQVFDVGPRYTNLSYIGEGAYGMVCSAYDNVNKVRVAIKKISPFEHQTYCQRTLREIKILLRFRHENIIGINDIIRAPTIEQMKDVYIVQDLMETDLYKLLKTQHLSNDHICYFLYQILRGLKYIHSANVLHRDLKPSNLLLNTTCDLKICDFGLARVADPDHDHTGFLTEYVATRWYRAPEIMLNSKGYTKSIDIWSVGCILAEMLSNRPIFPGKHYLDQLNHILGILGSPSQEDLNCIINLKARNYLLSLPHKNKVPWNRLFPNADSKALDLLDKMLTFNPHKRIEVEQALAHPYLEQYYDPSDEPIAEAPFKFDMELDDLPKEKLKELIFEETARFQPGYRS
Chain of Serine/threonine-protein kinase PAK 4 (Homo sapiens) (O96013 whole entry, looked up): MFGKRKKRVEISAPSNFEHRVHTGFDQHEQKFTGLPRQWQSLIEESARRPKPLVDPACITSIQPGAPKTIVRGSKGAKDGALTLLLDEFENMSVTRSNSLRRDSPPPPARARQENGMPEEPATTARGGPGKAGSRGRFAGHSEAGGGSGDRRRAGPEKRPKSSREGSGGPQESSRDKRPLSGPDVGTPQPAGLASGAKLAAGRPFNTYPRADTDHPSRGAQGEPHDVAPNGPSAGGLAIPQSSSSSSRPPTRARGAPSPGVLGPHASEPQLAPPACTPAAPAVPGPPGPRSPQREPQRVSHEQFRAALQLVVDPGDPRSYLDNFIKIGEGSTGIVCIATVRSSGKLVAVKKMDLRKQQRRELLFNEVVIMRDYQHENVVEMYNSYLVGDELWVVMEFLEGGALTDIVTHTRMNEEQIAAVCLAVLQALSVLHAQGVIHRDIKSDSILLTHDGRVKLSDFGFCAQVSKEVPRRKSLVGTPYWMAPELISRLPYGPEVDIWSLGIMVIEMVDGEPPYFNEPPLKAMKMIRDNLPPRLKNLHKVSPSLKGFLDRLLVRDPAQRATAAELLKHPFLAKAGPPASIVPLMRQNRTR

For `Clc1ccc(-n2cc(-c3ccncc3)nn2)cc1`, the inhibition entry in test [1], in test [2], in test [3], in test [4], in test [5] and in [6] was “Active” throughout. Further, the inhibition result in test [7], in test [10], in test [12], in [13] and in test [14] was “Active” in each case. Further, the inhibition result in test [8], in [9], in [11] and in test [15] was “inactive” each time.
With `Clc1ccc(-n2nncc2-c2ccncc2)cc1`, the inhibition entry in test [1], in [2], in test [3], in test [4], in test [5] and in [6] was “Active” throughout. In addition, the inhibition result in [7], in [10], in test [12], in [13] and in test [14] was “Active” each time. Besides, the inhibition result in [8], in test [9], in [11] and in test [15] was “inactive” each time.
Take `Clc1cccc(-n2nncc2-c2ccncc2)c1`: the inhibition entry in test [1], in test [2], in test [3], in [4], in test [5] and in test [6] was “Active” each time. The inhibition result in test [7], in test [10], in [12], in [13] and in [14] was “Active” throughout. Besides, the inhibition result in test [8], in [9], in test [11] and in [15] was “inactive” each time.
For `Clc1cccc(-n2cc(-c3ccncc3)nn2)c1`, the inhibition entry in test [1], in test [2], in test [3], in test [4], in test [5] and in [6] was “Active” throughout. Moreover, the inhibition result in test [7], in test [10], in [12], in [13] and in test [14] was “Active” each time. Also, the inhibition result in test [8], in test [9], in test [11] and in [15] was “inactive” throughout.
